From PubChem BioAssay (NCI)
“And” between values parts separate entries of the source, which are not always exact repeats. Equal values may be shown once.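 Protocol summary: plate cells (96-well), add compound at 5 concentrations, incubate 48 h, interpolate endpoints linearly. At the GI50, growth is halved. TGI marks complete inhibition of growth.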

Assays:
Experiment in all cases: growth of human tumour cells (NCI), 48 h
SN12C renal = system: SN12C renal
HT29 colon = system: HT29 colon
HOP-92 NSCLC = system: HOP-92 NSCLC
NCI-H522 lung = system: NCI-H522 lung
SF-295 CNS = system: SF-295 CNS
CAKI-1 renal = system: CAKI-1 renal
LOX IMVI melanoma = system: LOX IMVI melanoma
OVCAR-5 ovarian = system: OVCAR-5 ovarian
UACC-62 melanoma = system: UACC-62 melanoma
HCC-2998 colon = system: HCC-2998 colon

Row | SMILES | GI50 (SN12C renal) [µM] | TGI (SN12C renal) | GI50 (HT29 colon) [µM] | TGI (HT29 colon) [µM] | GI50 (HOP-92 NSCLC) [µM] | TGI (HOP-92 NSCLC) [µM] | GI50 (NCI-H522 lung) | TGI (NCI-H522 lung) [µM] | GI50 (SF-295 CNS) [µM] | TGI (SF-295 CNS) | GI50 (CAKI-1 renal) [µM] | TGI (CAKI-1 renal) [µM] | GI50 (LOX IMVI melanoma) [µM] | TGI (LOX IMVI melanoma) | GI50 (OVCAR-5 ovarian) [µM] | TGI (OVCAR-5 ovarian) | GI50 (UACC-62 melanoma) | TGI (UACC-62 melanoma) [µM] | TGI (HCC-2998 colon) | GI50 (HCC-2998 colon) [µM]
1 | COc1ccc2c(c1)/C(=C\c1c(-c3ccccc3)nc3sccn13)C(=O)N2 | 9.57 | > 26.6 µM | 8.17 | > 40.7 | > 100 | > 100 | 27 µM | 67.3 | 0.268 | 0.967 µM | 0.0357 | 0.37 | 6.09 | 22.2 µM | 5.13 | 40.4 µM | 3.52 µM | 15.6 | – | –
2 | OCC1CC2C=CCC(C2)C1 (stereo not drawn) | – | > 100 µM | – | > 100 | – | > 100 | – | > 100 | – | > 100 µM | – | > 100 | – | > 100 µM | – | > 100 µM | – | > 100 | – | –
3 | COC(=O)[C@@H](C)C[C@H](Cc1ccccc1)NC(=O)c1csc([C@@H](C[C@H](C(C)C)N(C)C(=O)[C@@H](NC(=O)[C@H]2CCCCN2C)c2ccc(F)cc2)OC(C)=O)n1 | – | 22.2 µM and 19.5 µM | – | – | – | – | 0.00259 µM and 0.0234 µM | – | – | 25 µM and > 100 µM | – | – | – | 6.71 µM and 20.8 µM | – | 25 µM and > 100 µM | 0.00331 µM and 0.0025 µM | 25 | 25 µM and > 100 µM | –
4 | CO[C@H]1/C=C/O[C@@]2(C)Oc3c(C)c(O)c4c(O)c(c(/C=N/N5C(C)CN(Cc6ccc(C#N)cc6)CC5C)c(O)c4c3C2=O)NC(=O)/C(C)=C\C=C\[C@H](C)[C@H](O)[C@@H](C)[C@@H](O)[C@@H](C)[C@H](OC(C)=O)[C@@H]1C (stereo partly drawn) | 6.73 | 13.6 µM | 6.87 | 14.4 | – | – | 6.22 µM | 22 | 2.88 | 12.2 µM | 7.65 | 17.8 | 6.84 | 13.4 µM | 8.88 | 18.1 µM | 3.88 µM | 10.4 | 17.6 µM | 7.87
5 | CCCCSC1CCSc2c1ccc1ccccc21 (stereo not drawn) | – | – | – | > 100 | – | > 100 | – | – | – | > 100 µM | – | > 100 | – | – | – | > 100 µM | – | > 100 | > 100 µM | –
6 | O=C(N/N=C/c1ccc([N+](=O)[O-])cc1)c1ccccc1Nc1ccnc(C(F)(F)F)c1 | 26.3 | > 100 µM | 30.7 | > 100 | – | – | 12.5 µM | 38.3 | 11.2 | 32.4 µM | 13.5 | 36.4 | 19.8 | > 100 µM | 24.6 | > 100 µM | 13.3 µM | 38.3 | 49.5 µM | 17.9
7 | [Mn+3].[O-][Cl+3]([O-])([O-])O.[O-]c1ccccc1C=NCCN1CC1.[O-]c1ccccc1C=NCCN1CC1 | 19.4 | > 100 µM | 20.2 | 44.1 | 94.8 | > 100 | 27.8 µM | > 100 | 18.6 | 58 µM | 28.8 | 68.1 | – | – | 37.6 | > 100 µM | 16.6 µM | 33.6 | – | –
8 | Clc1ccc(-c2nnc(-c3nn(-c4ccccc4)c4nc5ccccc5nc34)o2)cc1 | – | > 100 µM | – | > 100 | – | – | – | > 100 | – | > 100 µM | – | > 100 | – | > 100 µM | – | > 100 µM | – | > 100 | > 100 µM | –
9 | CON1C(=O)C2(CCCCC2)C(=O)C12C=CC(C)CC2 (stereo not drawn) | – | > 100 µM | – | > 100 | – | – | – | > 100 | – | > 100 µM | – | > 100 | – | > 100 µM | – | – | – | > 100 | > 100 µM | –
10 | CN1CCN(c2ccncc2S(=O)(=O)N2CCN(C)CC2)CC1 | – | – | – | > 100 | – | > 100 | – | > 100 | – | > 100 µM | – | > 100 | – | > 100 µM | – | > 100 µM | – | > 100 | – | –
11 | Nc1ccc(C(=O)CC2(O)C(=O)Nc3ccccc32)cc1 (stereo not drawn) | – | > 100 µM | – | > 100 | – | > 100 | – | > 100 | – | > 100 µM | – | > 100 | – | > 100 µM | – | > 100 µM | – | > 100 | – | –
12 | NC(CCl)=NCC12CC3CC(CC(C3)C1)C2 | 1.56 | 15.7 µM | 0.458 | 2.93 | – | – | 0.391 µM | 2.19 | 2.29 | 16.2 µM | 0.426 | 2.48 | 0.805 | 2.67 µM | 3.73 | 11.1 µM | 0.918 µM | 4.08 | 7.84 µM | 1.65
13 | Cn1nc(-c2ccccc2)c2c(/C=C/c3ccc(F)cc3)onc2c1=O | – | > 100 µM | – | > 100 | – | > 100 | – | 51.1 | – | – | – | 66 | – | > 100 µM | – | – | – | > 100 | – | –
